Measured values from patent publication US11324742B2, “Treatment of demyelinating diseases” (Victoria Link Ltd., priority 2018, dated 2022).
Where two headings read alike, the source gives them in different places.

Legend:
[1] = tested on: Substance P induced scratch; assay: Substance P induced scratch mouse model; conditions: SC or IV administration, top two rows of the table only, read-out: average in vivo efficacy ED50 for itch model
[2] = tested on: infiltrating immune cells (CD45high) in brain of EAE mice; assay: EAE model, immune cell infiltration into the brain by flow cytometry; assay type: in vivo, female C57BL/6 mice
[3] = tested on: myelin in spinal cord of EAE mice; assay: EAE model, TEM of spinal cord sections; assay type: in vivo, female C57BL/6 mice; conditions: 0.03 mg/kg daily i.p. from day 17; day 45
[4] = tested on: cuprizone demyelination disease model of MS; assay: Cuprizone model of demyelination, weight change; assay type: in vivo, female C57BL/6 mice
[5] = tested on: cuprizone model of demyelination; assay: Cuprizone model, rotarod assay (coordination); assay type: in vivo, female C57BL/6 mice; conditions: 0.1 mg/kg daily i.p.; week 9 relative to week 5
[6] = tested on: myelin in corpus callosum of cuprizone-treated mice; assay: Cuprizone model, TEM of corpus callosum (g-ratio, myelinated axons, myelin area); assay type: in vivo, female C57BL/6 mice
[7] = tested on: myelin in spinal cord of EAE mice; assay: EAE model, luxol fast blue staining of spinal cord (demyelination); assay type: in vivo, female C57BL/6 mice
[8] = tested on: lymphocyte populations in the spleen of EAE mice; assay: EAE model, splenocytes by flow cytometry; assay type: in vivo, female C57BL/6 mice; conditions: 0.01 mg/kg daily i.p. from onset
[9] = tested on: leucocyte infiltration into the spinal cord of EAE mice; assay: EAE model, H&E staining of spinal cord (leucocyte infiltration); assay type: in vivo, female C57BL/6 mice; conditions: 0.01 mg/kg daily i.p. from onset; chronic phase
[10] = tested on: activated GFAP+ astrocytes in the spinal cord of EAE mice; assay: EAE model, GFAP immunohistochemistry of spinal cord (activated astrocytes); assay type: in vivo, female C57BL/6 mice; conditions: 0.01 mg/kg daily i.p. from day 17; day 45
[11] = tested on: cuprizone demyelination disease model of MS; assay: Cuprizone model, von Frey mechanical withdrawal threshold; assay type: in vivo, female C57BL/6 mice; conditions: 0.1 mg/kg/i.p. daily
[12] = tested on: Substance P induced scratch; conditions: cited from earlier work
[13] = tested on: Morphine induced scratch; conditions: SC, EMA/CHMP/138212/2014; cited from earlier work
[14] = tested on: Histamine induced scratch; conditions: PO, Togashi et al. (2002); cited from earlier work
[15] = tested on: itch; conditions: human; cited from earlier work
[16] = cited from earlier work
[17] = 0.1 mg/kg/i.p. daily from day 28, day 70

CN(C(=O)/C=C/c1ccoc1)[C@@H]1CC[C@@]2(O)[C@H]3Cc4ccc(O)c5c4[C@@]2(CCN3CC2CC2)[C@H]1O5 [nalfurafine, (E)-N-[(4R,4aS,7R,7aR,12bS)-3-(cyclopropylmethyl)-4a,9-dihydroxy-1,2,4,5,6,7,7a,13-octahydro-4,12-methanobenzofuro[3,2-e]isoquinoline-7-yl]-3-(furan-3-yl)-N-methylprop-2-enamide]
ED50 [1]: ~2.71 µg/kg
number of infiltrating immune cells in brain (ratio to microglia) ([2]; 0.03 mg/kg daily i.p. from day 17, day 45): significantly reduced
number of infiltrating immune cells in brain (ratio to microglia) ([2]; 0.03 and 0.01 mg/kg daily i.p. from onset, chronic phase (>24 days)): significantly reduced
myelination of nerve axons in spinal cord (TEM) [3]: healthy and well-myelinated
% weight change in recovery phase ([4]; 0.1 mg/kg daily i.p. from day 28, cuprizone 35 days, vs vehicle or U-50488): enhances recovery of the lost weight faster
% weight change (reversal of cuprizone weight loss) ([4]; 0.1 mg/kg daily i.p. from week 4, 0.3% cuprizone 5 weeks, vs vehicle (Example 7)): reversed significantly more effectively
rotarod performance (coordination) [5]: reversed
myelin in corpus callosum (TEM, g-ratio) ([6]; 0.1 mg/kg daily i.p. from week 4, day 65 (Example 9)): more myelin was detected
area of myelin staining per TEM image [6, 17]: percentage increase in area of myelination
mean g-ratio (corpus callosum) [6, 17]: 0.75±0.15
number of myelinated axons vs non-myelinated axons [6, 17]: percentage increase in the number of myelinated axons
lesion load and myelin density in ventral horn (luxol fast blue) ([7]; 0.01 mg/kg daily i.p. from onset, chronic phase (Example 25)): reduces this lesion load and demyelination
% demyelination of spinal cord (luxol fast blue) ([7]; 0.03 or 0.01 mg/kg daily i.p. from onset, chronic phase): significant reduction
proportion of major lymphocyte populations in spleen (CD4, CD8, B220; % live leukocytes) ([8]; 27 days post treatment initiation): do not alter
Teff:cm ratio (effector to central memory CD4 T cells) ([8]; 27 days, vs vehicle): reduced ratio
overall number of CD4 T cells in spleen ([8]; 27 days, vs vehicle): the same
leucocyte infiltration score (0-3), H&E [9]: reduction of infiltrating leucocytes
number of activated GFAP+ astrocytes per section [10]: significantly reduces
mechanical withdrawal threshold (von Frey) ([11]; pre vs post treatment): reduced to baseline levels
mechanical threshold scores (von Frey) ([11]; vs vehicle treated mice): improved mechanical threshold scores
Complete Inhibition ([12]; IV, EMA/CHMP/138212/2014): 7.5 to 10 µg/kg
ED50 ([12]; IV, EMA/CHMP/138212/2014): 3.77 µg/kg
Inhibition reached at the dose given under Complete Inhibition ([12]; PO, 100 μg/kg, EMA/CHMP/138212/2014): (66%)
Complete Inhibition ([12]; PO, EMA/CHMP/138212/2014): 100 µg/kg
ED50 ([12]; PO, EMA/CHMP/138212/2014): 9.61 µg/kg
Complete Inhibition ([12]; PO, Togashi et al. (2002)): 100 µg/kg
ED50 ([12]; PO, Togashi et al. (2002)): 19.6 µg/kg
Complete Inhibition ([12]; SC, EMA/CHMP/138212/2014): 10 µg/kg
ED50 ([12]; SC, EMA/CHMP/138212/2014): 1.65 µg/kg
Complete Inhibition [13]: 5 to 10 µg/kg
ED50 [13]: 2.34 µg/kg
Complete Inhibition [14]: 30 to 100 µg/kg
ED50 [14]: 7.3 µg/kg
effective dose in humans for itch [15]: 2.5 μg/body/day
Bioavailability ([16]; intravenous (IV)): 100%
Bioavailability ([16]; oral (PO) administration): ~32%
Bioavailability ([16]; subcutaneous (s.c.)): 96%
